Reference: patent US11731946B2, “Broad spectrum antivirulence, anti-persistence compounds” (priority 2017, dated 2023)
Several values for one entry are separate records, joined by “and”; a condition that tells them apart may be missing. Equal values may be shown once.

Tests used:
MvfR regulon [1] = test: LC/MS quantification of HAQs and related molecules in bacterial culture supernatants; assay type: cell-based, P. aeruginosa; settings: for IC50 / activity at 50 µM: Pseudomonas aeruginosa
PA14 [2] = test: Acute mouse lung infection model (PA14); assay type: in vivo, mice
MvfR regulon [3] = test: pqsA gene expression (pqsA-GFP reporter); assay type: cell-based, P. aeruginosa; settings: Pseudomonas aeruginosa
MvfR regulon [4] = test: Quantification of pyocyanin (OD520nm of chloroform-extracted cultures); assay type: cell-based, P. aeruginosa; settings: Pseudomonas aeruginosa
MvfR = molecular target: T1, MvfR (Pseudomonas aeruginosa, UniProt Q9I4X0); test: Surface plasmon resonance (SPR) binding to purified MvfR co-inducer binding domain; set-up: species or system P. aeruginosa
T1 construct: made in house
Method in brief: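 The recombinant His-purified MvfR co-inducer binding domain was amine-coupled to the sensor chip at a target level of 5000 RU. Compound binding measured by SPR; KD taken from steady-state analysis.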

[5] = system: Caco2 intestinal epithelial cells; test: Survival of Caco2 cells after compound exposure; assay type: cell-based; settings: 25 μM, 3 hours exposure
PA14 [6] = test: Antibiotic tolerance/persister (AT/P) cell formation, meropenem, CFU plating; assay type: cell-based, P. aeruginosa; settings: 50 μM compound
Protocol: Wild type (PA14) P. aeruginosa was grown in liquid culture with or without Compound 54 and treated with meropenem according to published procedures (see e.g., Starkey et al, PLoS Pathog. 2014, 10:e1004321). Data are expressed as fraction of original culture surviving antibiotic treatment.
AT/P efficacy of compounds using CFU plating was assessed by growning over-night, cultures diluted 1:100 in triplicate in fresh LB medium in the presence or absence of inhibitor, and re-grown to an OD600 of 2.0 while shaking under aeration at 37° C. Before the antibiotic treatment, aliquots were plated to obtain reference colony counts. […] At 24-h and 48-h time points, the number of surviving bacteria were assessed by plating. The survival fraction of AT/P cells was calculated by dividing the number of surviving bacteria by the number of live bacteria that were present before the antibiotic treatment (reference datum) and expressed as a mean (±SD) of at least three replicate experiments. Using the same CFU plating assay, the efficacy of all compounds identified will be tested against additional antibiotic classes: b-lactams (ceftazidime, cefepime and imipenem), quinolones (ciprofloxacin, moxifloxacin, and levofloxacin), and aminoglycosides (gentamicin and tobramycicn).

T1 sequence (Q9I4X0 91-332): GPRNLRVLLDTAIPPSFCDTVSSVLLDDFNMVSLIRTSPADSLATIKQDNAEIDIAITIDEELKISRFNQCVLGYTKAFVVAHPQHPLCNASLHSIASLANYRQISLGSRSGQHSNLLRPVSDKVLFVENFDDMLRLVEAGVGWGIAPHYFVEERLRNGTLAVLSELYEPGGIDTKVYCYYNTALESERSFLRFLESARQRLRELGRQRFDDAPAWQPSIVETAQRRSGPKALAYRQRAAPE

N#Cc1ccc(NC(=O)CC(=O)Nc2ccc(Br)cc2)cc1 [Compound 54]
IC50 (MvfR regulon [1]; PA14, read-out: IC50 2-AA (μM)): 4.7 µM
IC50 (MvfR regulon [1]; PA14, read-out: IC50 DHQ (μM)): 10.1 µM
IC50 (MvfR regulon [1]; PA14, read-out: IC50 HHQ (μM)): 11.2 µM
IC50 (MvfR regulon [1]; PA14, read-out: IC50 PQS (μM)): 7.8 µM
activity at 50 µM (MvfR regulon [1]; read-out: 2-AA @50 uM): 5.63%
activity at 50 µM (MvfR regulon [1]; read-out: AA @50 uM): 701%
activity at 50 µM (MvfR regulon [1]; read-out: DHQ @50 uM): 10.6%
activity at 50 µM (MvfR regulon [1]; read-out: HHQ @50 uM (%)): 1.76%
activity at 50 µM (MvfR regulon [1]; read-out: HQNO @50 uM (%)): 12.5%
IC50 (MvfR regulon [1]; read-out: IC50 AA (increase; μM)): 11.3 µM
IC50 (MvfR regulon [1]; read-out: IC50 HQNO (μM)): 8.7 µM
activity at 50 µM (MvfR regulon [1]; read-out: PQS @50 uM (%)): 7.4%
reduction of hydroxy-2-alkylquinoline (HAQ) and 2-AA production (MvfR regulon [1]; liquid culture grown with 50 µM Compound 54 (FIG. 1C)): 5 to 10 fold
potentiation of ciprofloxacin in reducing PA cells in mice lungs (PA14 [2]; 10 mg/kg compound SC plus ciprofloxacin 1 mg/kg IP, CFUs 24 h post-infection): potentiates ciprofloxacin efficacy
recoverable CFUs from infected lungs (PA14 [2]; preliminary, intranasal infection, 10 mg/kg compound vs vehicle): reduces the recoverable CFUs from infected lungs
IC50 (MvfR regulon [3]; read-out: IC50 pqsA (μM)): 1.28 µM
activity at 10 µM (MvfR regulon [3]; read-out: pqsA @10 uM (%), compound at 10 uM): 8.8%
activity at 50 µM (MvfR regulon [3]; read-out: pqsA @50 uM (%), compound at 50 uM): 7.93%
IC50 (MvfR regulon [4]; read-out: IC50 pyocyanin (μM)): 1.8 µM
activity at 1 µM (MvfR regulon [4]; read-out: pyocyanin @1 uM (%), compound at 1 uM): 60.8%
activity at 10 µM (MvfR regulon [4]; read-out: pyocyanin @10 uM (%), compound at 10 uM): 5.9%
activity at 50 µM (MvfR regulon [4]; read-out: pyocyanin @50 uM (%), compound at 50 uM): 5.7%
binding to MvfR (in words) (MvfR; FIG. 1B): high affinity
Signal Intensity Rmax (MvfR; SPR): 28.21
binding intensity relative to parent Compound 1 (MvfR; SPR): 40 times
Kd (MvfR; Steady State Binding Affinity KD (μM), SPR, steady state): 0.275 µM
Kd (MvfR; Steady State Binding Affinity KD [M], SPR, steady state): 0.275 µM
Kd (MvfR; mean KD value, SPR, mean over the compounds named): ~0.25 µM and 0.25 µM
toxicity to Caco2 (survival) [5]: not toxic
inhibition of persistence (PA14 [6]): inhibit persistence
